From ChEMBL document CHEMBL5252592, “Design, synthesis, and biological activity evaluation of novel tubulin polymerization inhibitors based on pyrimidine ring skeletons” (Bioorg Med Chem Lett, 2023) come the findings set out here.

What all share (type): functional, cell-based
In one assay the test system is U-937. As to the kind of experiment: Antiproliferative activity against human U-937 cells assessed as inhibition of cell growth.
A further assay deals with HepG2. Kind of assay: Antiproliferative activity against human HepG2 cells assessed as inhibition of cell growth.
A further assay has as its system Y79. Kind of assay: Antiproliferative activity against human Y79 cells assessed as inhibition of cell growth.
The next assay relates to A549. As to the kind of experiment: Antiproliferative activity against human A549 cells assessed as inhibition of cell growth.

In general, IC50 refers to the concentration that inhibits the measured activity by half. For the compound `COc1cc(Nc2ccnc(-c3ccc4occc4c3)n2)cc(OC)c1OC`, the IC50 in the assay with U-937, in the assay on HepG2, in the assay with Y79 and in the assay on A549 was over 10 µM throughout.

Turning to `COc1cc(Nc2cc(-c3csc4ccccc34)ncn2)cc(OC)c1OC`, the IC50 in the assay with U-937, in the assay on HepG2, in the assay with Y79 and with A549 was over 10 µM throughout.

Regarding `COc1cc(Nc2nccc(-c3ccc4sc5ccccc5c4c3)n2)cc(OC)c1OC`, the IC50 in the assay on U-937 was 7.17 µM; in the assay on HepG2 it was over 10 µM; in the assay with Y79, over 10 µM; in the assay on A549 it was over 10 µM.

Consider `COc1cc(Nc2cc(-c3ccc4[nH]c5ccccc5c4c3)ncn2)cc(OC)c1OC`, for which the IC50 is 3.95 µM in the assay with U-937, over 10 µM in the assay with HepG2, over 10 µM in the assay on Y79 and 3.03 µM in the assay on A549.

On to `COc1cc(Nc2ccnc(-c3ccc4c(c3)OCCO4)n2)cc(OC)c1OC`, for which the IC50 in the assay with U-937, in the assay with HepG2, in the assay on Y79 and in the assay on A549 was over 10 µM throughout.

For the compound `COc1cc(Nc2cc(-c3cccc4c3OCO4)nc(N)n2)cc(OC)c1OC`, the IC50 in the assay with U-937, in the assay on HepG2, with Y79 and in the assay with A549 was over 10 µM in each case.

In the case of `COc1cc(Nc2ccnc(-c3cc4ccccc4s3)n2)cc(OC)c1OC`, the IC50 in the assay with U-937, in the assay on HepG2, in the assay with Y79 and in the assay with A549 was over 10 µM throughout.

With `COc1cc(Nc2ccnc(-c3cc4ccccc4o3)n2)cc(OC)c1OC`, the IC50 in the assay with U-937, in the assay on HepG2, in the assay on Y79 and with A549 was over 10 µM each time.

Take `COc1cc(Nc2cc(-c3cc4ccccc4s3)ncn2)cc(OC)c1OC`: the IC50 in the assay with U-937, in the assay on HepG2, in the assay on Y79 and with A549 was over 10 µM throughout.

As to `COc1cc(Nc2nccc(-c3ccc4ncccc4c3)n2)cc(OC)c1OC`, the IC50 with U-937 is 0.97 µM; in the assay with HepG2 it was 0.84 µM; in the assay with Y79, over 10 µM; with A549 it was 1.76 µM.

Consider `COc1cc(Nc2nccc(-c3cc4ccccc4o3)n2)cc(OC)c1OC`, for which the IC50 is 0.34 µM in the assay with U-937, 1.22 µM with HepG2, over 10 µM in the assay on Y79 and 2.29 µM in the assay on A549.

On to `COc1cc(Nc2nccc(-c3ccc4occc4c3)n2)cc(OC)c1OC`, for which the IC50 in the assay with U-937 was 0.04 µM; in the assay on HepG2, 0.79 µM; in the assay on Y79 it was over 10 µM; in the assay with A549, 1.76 µM.

As to `COc1cc(Nc2nccc(-c3ccc4c(c3)CCO4)n2)cc(OC)c1OC`, the IC50 was determined as 0.26 µM with U-937, 0.47 µM with HepG2, 0.6 µM with Y79 and 0.73 µM in the assay on A549.

With `COc1cc(Nc2ccnc(-c3csc4ccccc34)n2)cc(OC)c1OC`, the IC50 in the assay on U-937 was 1.54 µM; in the assay on HepG2, 5.01 µM; in the assay with Y79, over 10 µM; with A549, 3.06 µM.

`COc1cc(Nc2cc(-c3ccc4c(c3)OCCO4)ncn2)cc(OC)c1OC`: the IC50 with U-937, with HepG2, with Y79 and in the assay with A549 was over 10 µM each time.

As for `COc1cc(Nc2ccnc(-c3ccc4c(c3)OCO4)n2)cc(OC)c1OC`, the half-inhibitory concentration (IC50) in the assay on U-937, with HepG2, in the assay with Y79 and in the assay on A549 was over 10 µM throughout.

As to `COc1cc(Nc2cc(-c3ccc4c(c3)CCO4)nc(N)n2)cc(OC)c1OC`, the IC50 in the assay with U-937, in the assay on HepG2, with Y79 and in the assay on A549 was over 10 µM throughout.

`COc1cc(Nc2cc(-c3csc4ccccc34)nc(N)n2)cc(OC)c1OC`: the IC50 with U-937, in the assay with HepG2, with Y79 and in the assay with A549 was over 10 µM throughout.

As for `COc1cc(Nc2cc(-c3ccc4occc4c3)nc(N)n2)cc(OC)c1OC`, the IC50 with U-937 was 2.41 µM; in the assay with HepG2, 4.38 µM; in the assay on Y79, over 10 µM; with A549, 4.42 µM.

On to `COc1cc(Nc2cc(-c3ccc4cc[nH]c4c3)nc(N)n2)cc(OC)c1OC`, for which the IC50 with U-937 is 2.12 µM; with HepG2, 2.51 µM; in the assay on Y79, over 10 µM; in the assay on A549, 1.92 µM.

Consider `COc1cc(Nc2ccnc(-c3ccc4cc[nH]c4c3)n2)cc(OC)c1OC`, for which the IC50 in the assay on U-937, with HepG2, with Y79 and with A549 was over 10 µM in each case.

For `COc1cc(Nc2cc(-c3coc4ccccc34)ncn2)cc(OC)c1OC`, the IC50 in the assay with U-937, in the assay with HepG2, in the assay on Y79 and in the assay with A549 was over 10 µM throughout.

For the compound `COc1cc(Nc2cc(-c3ccc4c(c3)OCCO4)nc(N)n2)cc(OC)c1OC`, the IC50 with U-937, in the assay on HepG2, with Y79 and in the assay on A549 was over 10 µM in each case.

With `COc1cc(Nc2nccc(-c3ccc4c(c3)OCO4)n2)cc(OC)c1OC`, the IC50 was 0.37 µM in the assay with U-937, 1.77 µM with HepG2, over 10 µM with Y79 and 3.17 µM in the assay with A549.

With `COc1cc(Nc2cc(-c3cc4ccccc4s3)nc(N)n2)cc(OC)c1OC`, the IC50 in the assay with U-937, in the assay with HepG2, in the assay on Y79 and in the assay with A549 was over 10 µM in each case.

Consider `COc1cc(Nc2cc(-c3ccc4ncccc4c3)ncn2)cc(OC)c1OC`, for which the IC50 in the assay on U-937, in the assay on HepG2, in the assay on Y79 and in the assay with A549 was over 10 µM in each case.

On to `COc1cc(Nc2ccnc(-c3ccc4ncccc4c3)n2)cc(OC)c1OC`, for which the IC50 with U-937, in the assay with HepG2, in the assay with Y79 and in the assay with A549 was over 10 µM each time.

`COc1cc(Nc2ccnc(-c3ccc4c(c3)CCO4)n2)cc(OC)c1OC`: the IC50 with U-937, with HepG2, in the assay on Y79 and in the assay on A549 was over 10 µM throughout.

Turning to `COc1cc(Nc2nccc(-c3cc4ccccc4s3)n2)cc(OC)c1OC`, the IC50 was 0.12 µM with U-937, 0.24 µM in the assay with HepG2, over 10 µM in the assay on Y79 and 0.46 µM in the assay on A549.

Turning to `COc1cc(Nc2nccc(-c3ccc4cc[nH]c4c3)n2)cc(OC)c1OC`, the IC50 with U-937 was 0.12 µM; with HepG2, 0.37 µM; in the assay on Y79, over 10 µM; in the assay on A549 it was 0.85 µM.

As for `COc1cc(Nc2ccnc(-c3coc4ccccc34)n2)cc(OC)c1OC`, the IC50 in the assay with U-937 is 0.9 µM; in the assay with HepG2, 2.41 µM; in the assay with Y79, over 10 µM; in the assay on A549, 1.4 µM.

As to `COc1cc(Nc2cc(-c3ccc4occc4c3)ncn2)cc(OC)c1OC`, the IC50 with U-937, with HepG2, with Y79 and in the assay on A549 was over 10 µM each time.

`COc1cc(Nc2cc(-c3ccc4c(c3)OCO4)ncn2)cc(OC)c1OC`: the IC50 with U-937, with HepG2, in the assay on Y79 and in the assay with A549 was over 10 µM throughout.
